Data reported in ChEMBL document CHEMBL3885881, “DrugMatrix”.

Species on record: Rattus norvegicus
Assay: DrugMatrix - Regimen: Daily Repeat
Assay type: toxicity, organism-based, Sprague-Dawley
Design: regimen Daily Repeat, gender Male, age 6-8 weeks
Settings: in vivo, sc, […], route mini-PUMP - SUBCUTANEOUS, dose 0.44 mg/Kg, dose level High, vehicle 100 % SALINE; for ABSOLUTE BASOPHIL / ABSOLUTE EOSINOPHIL / ABSOLUTE LYMPHOCYTE / ABSOLUTE MONOCYTE / ABSOLUTE SEGMENTED NEUTROPHIL / BASOPHIL / EOSINOPHIL / ERYTHROCYTE COUNT / HEMATOCRIT / HEMOGLOBIN / LEUKOCYTE COUNT / LYMPHOCYTE / MEAN CORPUSCULAR HEMOGLOBIN / MEAN CORPUSCULAR HEMOGLOBIN CONCENTRATION / MEAN CORPUSCULAR VOLUME / MONOCYTE / NEUTROPHIL / NUCLEATED RED BLOOD CELLS / PLATELET COUNT: tissue Blood; for ALANINE AMINOTRANSFERASE / ALBUMIN / ALKALINE PHOSPHATASE / ASPARTATE AMINOTRANSFERASE / BLOOD UREA NITROGEN / CARBON DIOXIDE / CHLORIDE / CHOLESTEROL / CREATININE / GLUCOSE / LACTATE DEHYDROGENASE / LIPASE / PHOSPHORUS / POTASSIUM / SODIUM / TOTAL BILIRUBIN / TOTAL PROTEIN / URIC ACID: tissue Plasma

CNC[C@H](O)c1cccc(O)c1 [PHENYLEPHRINE]
ABSOLUTE BASOPHIL (72 h, time 3 day): 0 CELLS/uL
ABSOLUTE EOSINOPHIL (72 h, time 3 day): 55.67 CELLS/uL
ABSOLUTE LYMPHOCYTE (72 h, time 3 day): 14419.33 CELLS/uL
ABSOLUTE MONOCYTE (72 h, time 3 day): 594.67 CELLS/uL
ABSOLUTE SEGMENTED NEUTROPHIL (72 h, time 3 day): 1063.67 CELLS/uL
BASOPHIL (72 h, time 3 day): 0%
EOSINOPHIL (72 h, time 3 day): 0.33%
ERYTHROCYTE COUNT (72 h, time 3 day): 5.8 x10E6/uL
HEMATOCRIT (72 h, time 3 day): 34.93%
HEMOGLOBIN (72 h, time 3 day): 13 G/DL
LEUKOCYTE COUNT (72 h, time 3 day): 16.13 x10E3/uL
LYMPHOCYTE (72 h, time 3 day): 89.33%
MEAN CORPUSCULAR HEMOGLOBIN (72 h, time 3 day): 22.43 pg
MEAN CORPUSCULAR HEMOGLOBIN CONCENTRATION (72 h, time 3 day): 37.23 G/DL
MEAN CORPUSCULAR VOLUME (72 h, time 3 day): 60.33 fL
MONOCYTE (72 h, time 3 day): 3.67%
NEUTROPHIL (72 h, time 3 day): 6.67%
NUCLEATED RED BLOOD CELLS (72 h, time 3 day): 0.33 /100WBC
PLATELET COUNT (72 h, time 3 day): 1250 x10E3/uL
ALANINE AMINOTRANSFERASE (72 h, time 3 day): 43.33 u/L
ALBUMIN (72 h, time 3 day): 3.87 G/DL
ALKALINE PHOSPHATASE (72 h, time 3 day): 289 u/L
ASPARTATE AMINOTRANSFERASE (72 h, time 3 day): 78.67 u/L
BLOOD UREA NITROGEN (72 h, time 3 day): 16 mg/dL
CARBON DIOXIDE (72 h, time 3 day): 25.67 mmol/L
CHLORIDE (72 h, time 3 day): 102.67 MEQ/L
CHOLESTEROL (72 h, time 3 day): 76 mg/dL
CREATININE (72 h, time 3 day): 0.16 mg/dL
GLUCOSE (72 h, time 3 day): 149 mg/dL
LACTATE DEHYDROGENASE (72 h, time 3 day): 363 u/L
LIPASE (72 h, time 3 day): 9.33 u/L
PHOSPHORUS (72 h, time 3 day): 13.17 mg/dL
POTASSIUM (72 h, time 3 day): 6.76 MEQ/L
SODIUM (72 h, time 3 day): 148.13 MEQ/L
TOTAL BILIRUBIN (72 h, time 3 day): 0.17 mg/dL
TOTAL PROTEIN (72 h, time 3 day): 6.13 G/DL
URIC ACID (72 h, time 3 day): 1.83 mg/dL
ABSOLUTE BASOPHIL (120 h, time 5 day): 0 CELLS/uL
ABSOLUTE EOSINOPHIL (120 h, time 5 day): 45.67 CELLS/uL
ABSOLUTE LYMPHOCYTE (120 h, time 5 day): 14706.67 CELLS/uL
ABSOLUTE MONOCYTE (120 h, time 5 day): 166.33 CELLS/uL
ABSOLUTE SEGMENTED NEUTROPHIL (120 h, time 5 day): 1714.67 CELLS/uL
BASOPHIL (120 h, time 5 day): 0%
EOSINOPHIL (120 h, time 5 day): 0.33%
ERYTHROCYTE COUNT (120 h, time 5 day): 6.03 x10E6/uL
HEMATOCRIT (120 h, time 5 day): 35.63%
HEMOGLOBIN (120 h, time 5 day): 13.2 G/DL
LEUKOCYTE COUNT (120 h, time 5 day): 16.63 x10E3/uL
LYMPHOCYTE (120 h, time 5 day): 88.33%
MEAN CORPUSCULAR HEMOGLOBIN (120 h, time 5 day): 21.9 pg
MEAN CORPUSCULAR HEMOGLOBIN CONCENTRATION (120 h, time 5 day): 37.03 G/DL
MEAN CORPUSCULAR VOLUME (120 h, time 5 day): 59.07 fL
MONOCYTE (120 h, time 5 day): 1%
NEUTROPHIL (120 h, time 5 day): 10.33%
NUCLEATED RED BLOOD CELLS (120 h, time 5 day): 0 /100WBC
PLATELET COUNT (120 h, time 5 day): 1498.33 x10E3/uL
ALANINE AMINOTRANSFERASE (120 h, time 5 day): 48.33 u/L
ALBUMIN (120 h, time 5 day): 3.97 G/DL
ALKALINE PHOSPHATASE (120 h, time 5 day): 321.67 u/L
ASPARTATE AMINOTRANSFERASE (120 h, time 5 day): 89.67 u/L
BLOOD UREA NITROGEN (120 h, time 5 day): 14 mg/dL
CARBON DIOXIDE (120 h, time 5 day): 27.67 mmol/L
CHLORIDE (120 h, time 5 day): 103.33 MEQ/L
CHOLESTEROL (120 h, time 5 day): 71 mg/dL
CREATININE (120 h, time 5 day): 0.15 mg/dL
GLUCOSE (120 h, time 5 day): 166 mg/dL
LACTATE DEHYDROGENASE (120 h, time 5 day): 145.33 u/L
LIPASE (120 h, time 5 day): 9 u/L
PHOSPHORUS (120 h, time 5 day): 12.6 mg/dL
POTASSIUM (120 h, time 5 day): 6.15 MEQ/L
SODIUM (120 h, time 5 day): 148.6 MEQ/L
TOTAL BILIRUBIN (120 h, time 5 day): 0.17 mg/dL
TOTAL PROTEIN (120 h, time 5 day): 6.1 G/DL
URIC ACID (120 h, time 5 day): 1.87 mg/dL
ABSOLUTE BASOPHIL (time 14 day): 0 CELLS/uL
ABSOLUTE EOSINOPHIL (time 14 day): 155 CELLS/uL
ABSOLUTE LYMPHOCYTE (time 14 day): 14503.4 CELLS/uL
ABSOLUTE MONOCYTE (time 14 day): 573 CELLS/uL
ABSOLUTE SEGMENTED NEUTROPHIL (time 14 day): 2768.6 CELLS/uL
BASOPHIL (time 14 day): 0%
EOSINOPHIL (time 14 day): 0.8%
ERYTHROCYTE COUNT (time 14 day): 6.23 x10E6/uL
HEMATOCRIT (time 14 day): 37.14%
HEMOGLOBIN (time 14 day): 13.54 G/DL
LEUKOCYTE COUNT (time 14 day): 18 x10E3/uL
LYMPHOCYTE (time 14 day): 80.8%
MEAN CORPUSCULAR HEMOGLOBIN (time 14 day): 21.72 pg
MEAN CORPUSCULAR HEMOGLOBIN CONCENTRATION (time 14 day): 36.46 G/DL
MEAN CORPUSCULAR VOLUME (time 14 day): 59.54 fL
MONOCYTE (time 14 day): 3.2%
NEUTROPHIL (time 14 day): 15.2%
NUCLEATED RED BLOOD CELLS (time 14 day): 0 /100WBC
PLATELET COUNT (time 14 day): 1175 x10E3/uL
ALANINE AMINOTRANSFERASE (time 14 day): 43.6 u/L
ALBUMIN (time 14 day): 4.1 G/DL
ALKALINE PHOSPHATASE (time 14 day): 276.2 u/L
ASPARTATE AMINOTRANSFERASE (time 14 day): 80 u/L
BLOOD UREA NITROGEN (time 14 day): 19.6 mg/dL
CARBON DIOXIDE (time 14 day): 29.4 mmol/L
CHLORIDE (time 14 day): 100.6 MEQ/L
CHOLESTEROL (time 14 day): 69.8 mg/dL
CREATININE (time 14 day): 0.23 mg/dL
GLUCOSE (time 14 day): 173.8 mg/dL
LACTATE DEHYDROGENASE (time 14 day): 166.4 u/L
LIPASE (time 14 day): 8.6 u/L
PHOSPHORUS (time 14 day): 13.24 mg/dL
POTASSIUM (time 14 day): 7.17 MEQ/L
SODIUM (time 14 day): 144.9 MEQ/L
TOTAL BILIRUBIN (time 14 day): 0.18 mg/dL
TOTAL PROTEIN (time 14 day): 6.42 G/DL
URIC ACID (time 14 day): 2.54 mg/dL
